# Experimental data from PubChem BioAssay AID322 (DTP/NCI, 2004).
# Toxic doses and inconclusive results are not listed.
# System: CD2F1 mice, P388/ADR leukemia ip, median survival T/C
# Test: NCI In Vivo Anticancer Drug Screen. Data for tumor model P388 Leukemia resistant to Adriamycin; NSC 123127, Developed at Scr 08 (intraperitoneal) in CD2F1 (CDF1) mice
# Details: endpoint: median survival time, higher = longer survival
# Experimental: The antitumor activity of compounds was measured in mice bearing transplantable tumors. Survival or tumor size were measured and the results are expressed as the measurement made in the treated group (T) divided by the measurement made in the vehicle treated control group (C). The tumor model used in this assay is P388 Leukemia resistant to Adriamycin; NSC 123127, Developed at Scr 08 (intraperitoneal) in CD2F1 (CDF1) mice
smiles,measurement,setting,value
NCCCNCCCCNC(=O)C(O)NC(=O)CCCCCCN=C(N)N (stereo not given),T/C,"dose: 4.4 mg/kg/injection, schedule: Q01DX009 (ip), vehicle: other",195 % of control
same,T/C,"dose: 4.4 mg/kg/injection, schedule: Q01DX009 (ip), vehicle: saline",193 % of control
same,T/C,"dose: 6.7 mg/kg/injection, schedule: Q01DX009 (ip), vehicle: other",195 % of control
same,T/C,"dose: 6.7 mg/kg/injection, schedule: Q01DX009 (ip), vehicle: saline",198 % of control
same,T/C,"dose: 10.0 mg/kg/injection, schedule: Q01DX009 (ip), vehicle: other",205 % of control
same,T/C,"dose: 10.0 mg/kg/injection, schedule: Q01DX009 (ip), vehicle: saline",206 % of control
same,T/C,"dose: 15.0 mg/kg/injection, schedule: Q01DX009 (ip), vehicle: other",209 % of control
same,T/C,"dose: 15.0 mg/kg/injection, schedule: Q01DX009 (ip), vehicle: saline",212 % of control
same,T/C,"dose: 22.5 mg/kg/injection, schedule: Q01DX009 (ip), vehicle: other",162 % of control
same,T/C,"dose: 22.5 mg/kg/injection, schedule: Q01DX009 (ip), vehicle: saline",219 % of control
COc1cccc2c1C(CO)N1C(C#N)C3CC(C(=O)O)C(C1C2)N3C (stereo not given),T/C,"dose: 0.78 mg/kg/injection, schedule: Q01DX005 (ip), vehicle: suspension in saline",186 % of control
same,T/C,"dose: 1.57 mg/kg/injection, schedule: Q01DX005 (ip), vehicle: suspension in saline",280 % of control
same,T/C,"dose: 3.12 mg/kg/injection, schedule: Q01DX005 (ip), vehicle: saline",200 % of control
same,T/C,"dose: 3.13 mg/kg/injection, schedule: Q01DX005 (ip), vehicle: suspension in saline",224 % of control
same,T/C,"dose: 6.25 mg/kg/injection, schedule: Q01DX005 (ip), vehicle: saline",248 % of control
same,T/C,"dose: 6.25 mg/kg/injection, schedule: Q01DX005 (ip), vehicle: suspension in saline",271 % of control
same,T/C,"dose: 12.5 mg/kg/injection, schedule: Q01DX005 (ip), vehicle: saline",266 % of control
same,T/C,"dose: 12.5 mg/kg/injection, schedule: Q01DX005 (ip), vehicle: suspension in saline",214 % of control
same,T/C,"dose: 25.0 mg/kg/injection, schedule: Q01DX005 (ip), vehicle: saline",272 % of control
same,T/C,"dose: 25.0 mg/kg/injection, schedule: Q01DX005 (ip), vehicle: suspension in saline",252 % of control
COc1cc(NCc2ccc3nc(N)nc(N)c3c2C)cc(OC)c1OC,T/C,"dose: 18.0 mg/kg/injection, schedule: Q01DX009 (ip), vehicle: distilled water + Tween-80",112 % of control
same,T/C,"dose: 27.0 mg/kg/injection, schedule: Q01DX009 (ip), vehicle: distilled water + Tween-80",118 % of control
same,T/C,"dose: 40.0 mg/kg/injection, schedule: Q01DX009 (ip), vehicle: distilled water + Tween-80",156 % of control
same,T/C,"dose: 60.0 mg/kg/injection, schedule: Q01DX009 (ip), vehicle: distilled water + Tween-80",184 % of control
same,T/C,"dose: 110.0 mg/kg/injection, schedule: Q01DX009 (ip), vehicle: distilled water + Tween-80",94 % of control
COc1nc(C(Cl)(Cl)Cl)c(Cl)c(OC)c1Cl,T/C,"dose: 50.0 mg/kg/injection, schedule: Q01DX005 (ip), vehicle: Klucel (hydroxypropylcellulose) (HPC)",114 % of control
same,T/C,"dose: 90.0 mg/kg/injection, schedule: Q01DX005 (ip), vehicle: Klucel (hydroxypropylcellulose) (HPC)",124 % of control
COc1ccc(C(C)c2cc3c(cc2OC)OCO3)cc1 (stereo not given),T/C,"dose: 12.5 mg/kg/injection, schedule: Q01DX005 (ip), vehicle: saline with Tween-80",105 % of control
same,T/C,"dose: 25.0 mg/kg/injection, schedule: Q01DX005 (ip), vehicle: saline with Tween-80",109 % of control
same,T/C,"dose: 50.0 mg/kg/injection, schedule: Q01DX005 (ip), vehicle: saline with Tween-80",119 % of control
